Results published in patent US20090156477A1, “Compositions and Methods for Regulating Inflammatory Responses” (Massachusetts Institute of Technology, priority 2005, published 2009).
“Also recorded” adds a separate entry of the source. Values belong to the molecule of their own block, whether it stands above or below them.

Assays:
Caco-2 cells [1] = test: Transepithelial resistance (TER) of Caco-2 monolayers; assay type: cell-based, human
Method: (§1) Caco-2 cells were grown close to confluence, and T84 cells were grown to confluence. The apical chambers of transwell plates with 6.5 mm diameter and 3 μm pore size filters were pretreated with 50 μl of 45 μg/ml collagen IV in 60% ethanol 24 hours prior to plating and incubated overnight at room temperature. After reaching confluence, cells were washed with 20 ml PBS and treated with 3.5 ml trypsin-EDTA per 175 cm^2 flask for 20-60 min at 37° C. until cells detached. Cells were resuspended in 16.5 ml media appropriate to the cell type. Each apical chamber was supplemented with 82 μl cell solution. The basolateral chamber was filled with 1 ml propagation media. Filters were fed with new media every two days over the course of experiments.
(§2) Caco-2 and T84 cells were allowed to grow on transwells to form monolayers. Monolayer formation was examined every other day by light microscopy as well as by transepithelial resistance (TER) measurements using an EVOM ohmmeter (World Precision Instruments, Sarasota, Fla.). After monolayer formation, cells were treated with 100 ng/ml FGF1, 100 ng/ml FGF2, 100 ng/ml FGF7 or an equivalent volume (10 μl) of PBS. TER measurements were made either after 72 hours or at each of the 30 minutes, 1 hour, 2 hours, 4 hours, 9 hours, 24 hours and 48 hours timepoints. To determine the effects of multiple additions of ligand, FGFs or PBS were added initially and again after 2 days, and TER measurements were made after 0, 2 and 5 days.
(§3) To probe the mechanism by which various FGFs induced cell mediated effects, various media treatments were employed. Ammonium tetrathiomolybdate (TM) was added 24 hours prior to the addition of ligands to yield a final concentration of 200 μM, sufficient to prevent the release of FGF1 [3]. Similarly, sodium chlorate, which reduces cell HSPGs and the sulfation of associated HSGAGs, was added 24 hours prior to the addition of ligands to yield a final concentration of 50 mM [33,34]. Antibodies and kinase inhibitors were added immediately prior to ligands. Antibodies to FGF1, FGFR1 and FGFR3 were added at a 1:100 dilution. Kinase inhibitors were added to yield final concentrations of 50 μM LY294002, 20 μM PD98059, 1 μM SB203580. All experiments were performed in triplicate.
Caco-2 cells were grown to just prior to confluency. The apical chambers of transwell plates with 6.5 mm diameter and 3 μm pore size filters were pretreated with 50 μl of 45 μg/ml mouse recombinant collagen IV (BD Biosciences, Bedford, Mass.) in 60% ethanol 24 hours prior to plating. Plates were incubated overnight at room temperature. Just prior to confluency, cells were washed with 20 ml phosphate buffered saline (PBS) and treated with 3.5 ml trypsin-EDTA per 175 cm^2 flask for 20-60 min at 37° C., until cells detached. Cells were resuspended in 16.5 ml media appropriate to the cell type. Each apical chamber was supplemented with 82 μl cell solution. The basolateral chamber was filled with 1 ml propagation media. Filters were fed with new media every two days over the course of experiments.
Caco-2 cells were allowed to grow on transwells to form monolayers. Monolayer formation was examined every other day by light microscopy as well as by TER measurements using an EVOM ohmmeter (World Precision Instruments, Sarasota, Fla.). After monolayer formation, cells were treated with 100 ng/ml recombinant human FGF1 (Amgen, Thousand Oaks, Calif.), 100 ng/ml recombinant human FGF2 [1], 100 ng/ml recombinant human FGF7 (Sigma, St. Louis, Mo.), or an equivalent volume (10 μl) of PBS. TER measurements were made after each of 30 minutes, 1 hour, 2 hours, 4 hours, 9 hours, 24 hours and 48 hours.
To probe the mechanism by which various FGFs induced cellular mediated effects, various media treatments were employed. TM was added 24 hours prior to the addition of ligands to yield a final concentration of 200 μM, sufficient to prevent the release of FGF1 [3]. […]

T84 cells [2] = test: Transepithelial resistance (TER) of T84 monolayers; assay type: cell-based, human; settings: agent given before or with 100 ng/ml FGFs (TM 200 μM, sodium chlorate 50 mM, LY294002 50 μM, antibodies 1:100)
Method: as §1, §2, §3

FGF1 [3] = test: Immunohistochemistry for FGF1 in Caco-2 cells; assay type: cell-based, human; settings: 200 μM TM for 24 hours
Method: (§4) To determine FGFR and FGF1 expression, Caco-2 cells were grown to just prior to confluence, and T84 cells were grown to confluence on collagen-coated glass slides. Cells were washed with PBS supplemented with 5% BSA. To stain for FGFR3, rabbit anti-human FGFR3 antibodies were added to cells at a 1:500 dilution and incubated for 1 hour. Cells were washed with PBS supplemented with 5% BSA, and FITC-conjugated goat anti-rabbit antibodies were added and incubated for 30 minutes. Cells were washed with BSA-PBS and examined using fluorescence microscopy. For FGF1 analysis, cells were treated with 200 μM TM or 10 μl PBS for 24 hours, formalin fixed, treated with goat anti-human FGF1 antibodies at a 1:200 dilution and incubated for 4 hours. Cells were washed with PBS supplemented with 5% BSA, and Texas red-conjugated donkey anti-goat antibodies were added and incubated for 1 hour. Cells were washed with BSA-PBS and examined using fluorescence microscopy.

Caco-2 cells [4] = test: Caco-2 proliferation assay (whole cell number); assay type: cell-based, human; settings: TM 200 μM, FGF1 added to TM treated cells
Method: (§5) Caco-2 cells were grown to just prior to confluence, and T84 cells were grown to confluence. Each flask was washed with 20 ml PBS and treated with 3 ml trypsin-EDTA at 37° C. for 20-60 minutes until cells detached. Cells were centrifuged for 3 minutes at 195×g. The supernatant was aspirated, and the cells were resuspended in 10 ml media. The cell density was measured using an electronic cell counter, and the suspension was diluted to 50,000 cells/ml. The suspension was plated at 1 ml/well into 12-well tissue culture plates. After a 24 hour incubation in a 5% CO2, 37° C. humidified incubator, the media was aspirated, the wells were washed with serum free media, and the cells were supplemented with media containing 0.1% FBS. The wells were then supplemented with 10 μl PBS, 50 mM sodium chlorate, or 200 μM TM, and incubated for 24 hours. Subsequently, cells were supplemented with 100 ng/ml FGF1, FGF2, FGF7, or 10 μl PBS, and incubated for 72 hours. Wells were then washed twice with PBS and treated with 0.5 ml trypsin-EDTA/well and incubated at 37° C. until cells detached. Whole cell number was determined using an electronic cell counter. Data was averaged over three experiments, each consisting of four wells per condition.

FGF1 [5] = test: Immunohistochemistry for FGF1 in T84 cells; assay type: cell-based, human; settings: 200 μM TM for 24 hours
Method: as §4

T84 cells [6] = test: T84 proliferation assay (whole cell number); assay type: cell-based, human; settings: TM 200 μM, FGF1 added to TM treated cells
Method: as §5

[7] = target: FGFR3b expressed by Caco-2 and T84 cells (human) (UniProt P22607); test: cell-based or functional assay
[8] = cell line not stated (Caco-2 and T84 cells studied), PD98059 20 μM, SB203580 1 μM, LY294002 50 μM, antibodies 1:100
[9] = Caco-2 cells, agent given before or with 100 ng/ml FGFs (TM 200 μM, sodium chlorate 50 mM, LY294002 50 μM, PMA 100 ng/ml, antibodies 1:100)

Chain of UniProt P22607 (P22607 23-806): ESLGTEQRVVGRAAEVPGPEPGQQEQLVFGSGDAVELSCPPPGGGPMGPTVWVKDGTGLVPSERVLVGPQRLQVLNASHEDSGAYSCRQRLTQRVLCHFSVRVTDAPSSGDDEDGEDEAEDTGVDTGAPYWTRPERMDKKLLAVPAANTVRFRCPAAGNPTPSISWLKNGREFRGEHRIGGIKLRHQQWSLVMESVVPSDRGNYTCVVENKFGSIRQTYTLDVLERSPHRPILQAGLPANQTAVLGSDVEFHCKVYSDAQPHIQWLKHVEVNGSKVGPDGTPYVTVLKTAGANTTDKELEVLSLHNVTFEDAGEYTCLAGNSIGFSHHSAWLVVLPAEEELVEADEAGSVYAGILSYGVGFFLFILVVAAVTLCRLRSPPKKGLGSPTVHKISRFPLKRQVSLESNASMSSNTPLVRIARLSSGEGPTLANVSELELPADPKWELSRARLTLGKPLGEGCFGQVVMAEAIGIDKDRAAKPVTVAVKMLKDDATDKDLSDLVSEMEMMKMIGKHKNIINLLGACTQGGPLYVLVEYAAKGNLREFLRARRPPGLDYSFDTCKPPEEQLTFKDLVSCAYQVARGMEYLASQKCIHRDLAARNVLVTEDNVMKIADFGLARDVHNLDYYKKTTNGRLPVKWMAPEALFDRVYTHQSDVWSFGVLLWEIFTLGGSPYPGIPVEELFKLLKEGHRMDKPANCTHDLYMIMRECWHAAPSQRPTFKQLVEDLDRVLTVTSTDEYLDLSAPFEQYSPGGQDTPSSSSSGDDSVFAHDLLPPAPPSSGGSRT

Molecule: COc1cccc(-c2cc(=O)c3ccccc3o2)c1N [PD98059, reference compound]
effect of added agent on FGF-induced reduction in TER (Caco-2 cells [1]; [8]): failed to eliminate the ligand mediated inhibition of TER

Molecule: CCCCCCCCCCCCCC(=O)O[C@@H]1[C@@H](C)[C@@]2(O)[C@@H](C=C(CO)C[C@]3(O)C(=O)C(C)=C[C@@H]23)[C@@H]2C(C)(C)[C@]12OC(C)=O [PMA, phorbol 12-myristate 13-acetate, reference compound]
effect of added agent on FGF-induced reduction in TER (Caco-2 cells [1]; [9]): prevented FGF2 and FGF7 activity, but not that of FGF1

Molecule: C[S+]([O-])c1ccc(-c2nc(-c3ccncc3)c(-c3ccc(F)cc3)[nH]2)cc1 (stereo not shown) [SB203580, reference compound]
effect of added agent on FGF-induced reduction in TER (Caco-2 cells [1]; [8]): failed to eliminate the ligand mediated inhibition of TER

Molecule: [Na+].[O-][Cl+2]([O-])[O-] [Sodium chlorate, sodium chlorate, reference compound]
effect of added agent on FGF-induced reduction in TER (T84 cells [2]): eliminated the ability | effect of added agent on FGF-induced reduction in TER (Caco-2 cells [1]; [9]): eliminated the ability; also recorded: abrogated the ability

Molecule: [NH4+].[NH4+].[SH-].[SH-].[S]=[Mo]=[S] [TM, Ammonium tetrathiomolybdate, reference compound]
effect of added agent on FGF-induced reduction in TER (T84 cells [2]): prevented | distribution of FGF1 (FGF1 [3]): retaining FGF1 closer to the nucleus | effect of added agent on FGF-induced reduction in TER (Caco-2 cells [1]; [9]): abrogated the reduction in TER induced by FGF2 | effect of added agent on proliferative effect of FGF2 and FGF7 (Caco-2 cells [4]): eliminated the proliferative effect of FGF2 and FGF7 | distribution of FGF1 (FGF1 [5]): retaining FGF1 closer to the nucleus | effect of added agent on proliferative effect of FGF2 and FGF7 (T84 cells [6]): eliminated the proliferative effect of FGF2 and FGF7

Molecule: Boiled FGF1: FGF1 that was boiled, used as control in the TER test
reduction of TER (in words) (Caco-2 cells [1]; cell line not stated (Caco-2 and T84 cells studied)): did not reduce TER

inhibition of increases in TER over three days, Caco-2 cells [7]: 35.1% | inhibition of increases in TER over three days, T84 cells [7]: 30.1% | reduction of TER at 48 hours, Caco-2 cells [7]: 45.1% | reduction of TER at 48 hours, T84 cells [7]: 22.7%
Molecule: Recombinant human FGF1 (from UniProt P05230 16-155) (ligand)
